This is an account of results in PMC9611758, “Bioactive Platinum(IV) Complexes Incorporating Halogenated Phenylacetates” (Molecules, 2022).

What is called pKa is the pH at which an ionisable group is half protonated. One may read the GI50 as the concentration giving 50% growth inhibition.

Where two headings read alike, the source gives them in different places.

On the set-up of series [1]: method as in earlier work. As to conditions: heterocyclic ligand; cited from earlier work.
For the next series, the system named is A431 skin. Also on record: method as in PMID 36142383. As to conditions: MTT assay, 72 h; cited from earlier work. A general note: Formazan colour is commonly taken as a measure of viable cells.
Series [2] relates to PC3 (prostate carcinoma) tumour xenografts. Details: method as in PMID 18997969. As to conditions: PC3 xenograft mice; cited from earlier work.
For series [3], the system named is HT29 colon. Details: method as in PMID 36142383. Conditions: MTT assay, 72 h; cited from earlier work.
In the next series the test system is BE2-C neuroblastoma. Also on record: method as in PMID 36142383. As to conditions: MTT assay, 72 h; cited from earlier work.
Series [4] deals with non-tumour derived MCF10A breast line. Details: method as in PMID 36142383. As to conditions: MTT assay, 72 h; cited from earlier work.
Series [5] has as its system panel of cell lines. Also on record: method as in PMID 36142383. Conditions: average over the cell lines tested, MTT assay, 72 h; cited from earlier work.
The test system of another series is A2780 ovarian. Details: method as in PMID 36142383. Conditions: MTT assay, 72 h; cited from earlier work.
The next series deals with U87 glioblastoma. Also on record: method as in PMID 36142383. Conditions: MTT assay, 72 h; cited from earlier work.
The next series deals with SJ-G2 glioblastoma. Also on record: method as in PMID 36142383. As to conditions: MTT assay, 72 h; cited from earlier work.
The test system of another series is MIA pancreas. Details: method as in PMID 36142383. As to conditions: MTT assay, 72 h; cited from earlier work.
Series [6] has as its system HT29 colon cells. The series can be described thus: ROS detection assay (DCFH-DA). The format is cell-based, human. Conditions: HT29 colon cells, treated at GI50 concentration (TBHP positive control 20 μM).
A further series has as its system MCF-7 breast. Details: method as in PMID 36142383. Conditions: MTT assay, 72 h; cited from earlier work.
The test system of series [7] is ADDP-resistant ovarian variant. Also on record: method as in PMID 36142383. As to conditions: MTT assay, 72 h; cited from earlier work.
Another series deals with H460 lung. Also on record: method as in PMID 36142383. Conditions: MTT assay, 72 h; cited from earlier work.
The test system of series [8] is Du145 prostate. Details: method as in PMID 36142383. As to conditions: MTT assay, 72 h; cited from earlier work.
The subject of series [9] is murine leukaemia cell line (L1210). Conditions: cited from earlier work.
Series [10] has the same test system. The series can be described thus: Cytotoxicity in L1210 (literature). Type of series: cell-based. As to conditions: SS more cytotoxic than RR. The text has this: Chirality is crucial to the biological activity of the studied complexes.
Series [11] deals with HT29 colon cells. Details: method as in PMID 36142383. Conditions: cited from earlier work.
Series [12] concerns ADDP-resistant ovarian variant. The series can be described thus: MTT growth inhibition assay, ADDP. Type of series: cell-based, human.
Series [13] concerns HT29 colon. Briefly: MTT growth inhibition assay, HT29. Type of series: cell-based, human.
For series [14], the system named is peritoneal carcinomatosis. Details: method as in PMID 20535526. Conditions: cited from earlier work.
The test system of series [15] is Du145 prostate. The series can be described thus: MTT growth inhibition assay, Du145. The format is cell-based, human. Conditions: Du145 prostate, ratio of GI50 values.
Series [16] deals with panel of cell lines. Briefly: MTT growth inhibition assay, whole panel of cell lines. Type of series: cell-based, human. Conditions: platinum(IV) precursor less cytotoxic than platinum(II) precursor, all cell lines.

On to `Cc1c(C)c2cccnc2c2ncccc12` [5,6-Me2phen, 5,6-dimethyl-1,10-phenanthroline], for which the pKa in [1] is 5.6.

Regarding `N.N.[Cl][Pt][Cl]` [Cisplatin, Cis-diamminedichloroplatinum(II)], the GI50 was 2.4 ± 0.3 µM in the series on A431 skin; 11.3 µM with HT29 colon [3]; 1.9 ± 0.2 µM in the series on BE2-C neuroblastoma; 5.2 ± 0.52 µM in series [4]; 5.84 ± 0.61 µM in the series on panel of cell lines [5]; 1 ± 0.1 µM with A2780 ovarian. Besides, the GI50 in the series on U87 glioblastoma is 3.8 ± 1.1 µM; in the series with SJ-G2 glioblastoma, 0.4 ± 0.1 µM; in the series on MIA pancreas it was 7.5 ± 1.3 µM; in the series on MCF-7 breast it was 6.5 ± 0.8 µM; in [7], 28 µM; in the series with H460 lung, 0.9 ± 0.2 µM. For the same compound, the concentration for 50% growth inhibition (GI50) in the series on Du145 prostate [8] is 1.2 ± 0.1 µM. Besides, the “mean tumour weight in relation to the control group” value in [2] is recorded as “comparable decrease in mean tumour weight”. Further, the “ROS production 24 h” value with HT29 colon cells [6] (24 h) is 221 ± 10 RFU. In addition, in the series on HT29 colon cells [6] (48 h), the “ROS production 48 h” value was found to be 280 ± 12 RFU. For the same compound, the “ROS production 72 h” value in the series with HT29 colon cells [6] (72 h) stood at 318 ± 9 RFU.

With `Cc1c(C)c2c3c4c1=CC=C[N]4[Pt+2][N]3C=CC=2.N[C@@H]1CCCC[C@H]1N` [Complex 56MERR], the 50% growth inhibitory concentration (GI50) in series [9] was 0.46 µM.

Turning to `Cc1c(C)c2cccnc2c2ncccc12.N[C@H]1CCCC[C@@H]1N.[Pt]` [Complex 56MESS, [Pt^II(5,6-Me2phen)(SS-DACH)]^2+], the GI50 in the series with A431 skin is 0.029 ± 0.001 µM; in [9], 0.009 µM; in the series with HT29 colon [3] it was 0.01 ± 0.0016 µM; in the series with BE2-C neuroblastoma it was 0.059 ± 0.004 µM; in [4] it was 0.016 ± 0.001 µM; in the series with panel of cell lines [5], 0.036 ± 0.01 µM. Moreover, the GI50 with A2780 ovarian is 0.076 ± 0.057 µM; in the series with U87 glioblastoma, 0.035 ± 0.0064 µM; in the series on SJ-G2 glioblastoma, 0.066 ± 0.022 µM; with MIA pancreas, 0.013 ± 0.002 µM; in the series on MCF-7 breast, 0.093 ± 0.044 µM; in [7], 0.013 ± 0.002 µM. For the same compound, the results for the GI50 with H460 lung and in the series on Du145 prostate [8] were 0.021 ± 0.002 µM and 0.0046 ± 0.0004 µM, respectively. For the same compound, the “fold difference in cytotoxicity between RR-DACH and SS-DACH enantiomer” value in series [10] is 51 fold. Also, in the series with HT29 colon cells [11], the “ROS production 24 h” value is given as 240 ± 5 RFU. Also, the “ROS production 48 h” value in the series with HT29 colon cells [11] was 218 ± 3 RFU. Moreover, the “ROS production 72 h” value with HT29 colon cells [11] is reported as 255 ± 4 RFU. For the same compound, in series [12] (ADDP-resistant ovarian variant, ratio of GI50 values), the “fold more potent than cisplatin” value is 2150 fold. In addition, in the series with HT29 colon [13] (HT29 colon, ratio of GI50 values), the “fold more reactive compared to cisplatin” value came out at 1100 fold. Besides, in series [14] (at pharmacological doses), the nephrotoxicity entry is “induced nephrotoxicity”. Further, in series [14] (intravenous and intraperitoneal treatment), the tumour suppression response result is “did not elicit a tumour suppression response”. Further, the “fold increase in potency over carboplatin” value in the series on Du145 prostate [15] is approximately 3300 fold. Further, in the series with Du145 prostate [15], the “fold increase in potency over oxaliplatin” value worked out at 630 fold.

`C1=C[N]2[Pt+2][N]3C=CC=c4ccc(c2c43)=C1.N[C@@H]1CCCC[C@H]1N` [PHENRR]: the concentration for 50% growth inhibition (GI50) in series [9] is 1.5 µM.

Regarding `N[C@H]1CCCC[C@@H]1N.[OH][Pt+2]1([OH])[N]2C=CC=c3ccc4c(c32)[N]1C=CC=4` [PHENSS(IV)(OH)2], the GI50 in the series with A431 skin is 4.3 ± 0.53 µM; in the series with HT29 colon [3] it was 0.71 ± 0.3 µM; with BE2-C neuroblastoma, 3 ± 0.53 µM; in series [4], 1.7 ± 0.2 µM; in the series on panel of cell lines [5], 3.32 ± 0.88 µM; with A2780 ovarian, 0.8 ± 0.084 µM. The GI50 was 4.9 ± 0.61 µM in the series with U87 glioblastoma; 1.7 ± 0.35 µM with SJ-G2 glioblastoma; 3.4 ± 2.2 µM in the series on MIA pancreas; 16 µM in the series on MCF-7 breast; 1.3 ± 0.35 µM in series [7]; 1.7 ± 0.2 µM in the series with H460 lung. For the same compound, in the series with Du145 prostate [8], the GI50 is 0.31 ± 0.092 µM. In addition, the “fold difference in average GI50 versus corresponding platinum(II) precursor” value in the series with panel of cell lines [16] was approximately 8 fold. Also, in the series with HT29 colon cells [11], the “ROS production 24 h” value is on record as 144 ± 5 RFU. Also, the “ROS production 48 h” value with HT29 colon cells [11] is reported as 273 ± 4 RFU. Besides, the “ROS production 72 h” value with HT29 colon cells [11] was 303 ± 1 RFU.

In the case of `C1=C[N]2[Pt+2][N]3C=CC=c4ccc(c2c43)=C1.N[C@H]1CCCC[C@@H]1N` [PHENSS, [Pt^II(phen)(SS-DACH)]^2+], the GI50 with A431 skin was 0.48 ± 0.17 µM; in series [9], 0.13 µM; with HT29 colon [3], 0.16 ± 0.045 µM; with BE2-C neuroblastoma, 0.38 ± 0.046 µM; in series [4], 0.3 ± 0.058 µM; in the series with panel of cell lines [5], 0.434 ± 0.11 µM. Besides, the GI50 with A2780 ovarian is 0.23 ± 0.03 µM; with U87 glioblastoma, 0.98 ± 0.27 µM; in the series with SJ-G2 glioblastoma it was 0.33 ± 0.066 µM; in the series on MIA pancreas, 0.2 ± 0.057 µM; with MCF-7 breast it was 1.5 ± 0.5 µM; in [7] it was 0.19 ± 0.047 µM. In addition, the values for the GI50 in the series with H460 lung and in the series on Du145 prostate [8] were 0.36 ± 0.035 µM and 0.1 ± 0.038 µM, respectively. Also, the “mean tumour weight in relation to the control group” value in series [2] is given as “comparable decrease in mean tumour weight”. In [2], the toxicity / mortality result was “no obvious signs of toxicity”. Moreover, the “fold difference in cytotoxicity between RR-DACH and SS-DACH enantiomer” value in [10] is listed as approximately 12 fold. For the same compound, the “ROS production 24 h” value with HT29 colon cells [11] is listed as 174 ± 2 RFU. For the same compound, the “ROS production 48 h” value in the series with HT29 colon cells [11] is on record as 172 ± 9 RFU. In addition, the “ROS production 72 h” value with HT29 colon cells [11] is 176 ± 7 RFU. For the same compound, in [12], the “fold more potent than cisplatin” value is approximately 150 fold. Moreover, the “fold more reactive compared to cisplatin” value in the series on HT29 colon [13] turned out to be 70 fold.

Regarding `c1cnc2c(c1)ccc1cccnc12` [phen, 1,10-phenanthroline], the pKa in series [1] is reported as 4.9.
